This note sets out measurements from patent publication US20190224347A1, “Detection of Renal Amyloidosis by Imaging with Stilbene or Phenylbenzothiazole Derivatives” (Mayo Foundation for Medical Education and Research, priority 2018, published 2019).

This assay concerns the target T1, leucocyte cell-derived chemotaxin-2 (LECT2) amyloidosis (Homo sapiens, UniProt O14960).
T1 construct: biopsy-confirmed leucocyte cell-derived chemotaxin-2 (LECT2) amyloidosis underwent a positron emission tomography/computed tomography (PET/CT) scan with florbetapir; from tissue; host or cells: Living patient: amyloid deposits in lungs, spleen, adrenal glands, kidneys and bone marrow
T1 sequence (O14960 19-151): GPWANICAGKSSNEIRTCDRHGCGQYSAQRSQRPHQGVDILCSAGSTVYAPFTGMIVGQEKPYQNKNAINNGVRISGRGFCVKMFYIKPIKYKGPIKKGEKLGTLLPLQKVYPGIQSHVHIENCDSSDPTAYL
As to the kind of experiment: PET/CT scan with florbetapir 18F in a patient with biopsy-confirmed LECT2 amyloidosis. The assay is classed as in vivo. The procedure:
Administration to the subject of a pharmaceutical composition including a radiolabeled stilbene derivative or phenylbenzothiazole derivative chosen from the compounds of Formulas (I) to (VII) above for in vivo detection of the accumulated compound in LECT2-based protein structures can be accomplished intravenously, intraarterially, intrathecally, intramuscularly, intradermally, subcutaneously, or intracavitary. Dosage can vary. In one non-limiting example, dosage may vary from 0.001 μg/kg to 10 μg/kg. In another non-limiting example, the dose for florbetapir may be 370 MBq (10 mCi), maximum 50 μg mass dose, administered as a single intravenous bolus in a total volume of 10 mL or less. The injection may be followed with an intravenous flush of 0.9% sterile sodium chloride. In the method of the invention, sufficient time is allowed after administration such that the radiolabeled stilbene derivative or phenylbenzothiazole derivative can accumulate in any LECT2-based protein structures.
A person with end stage renal disease on haemodialysis secondary to biopsy-confirmed leucocyte cell-derived chemotaxin-2 (LECT2) amyloidosis underwent a positron emission tomography/computed tomography (PET/CT) scan with florbetapir ^18F. […] These organs normally have low activity on florbetapir PET/CT. The activity pattern is consistent with pathological data on the distribution of amyloidosis in this disease. […] A remarkable finding in this patient is the uptake in the kidney because they make little urine and is on chronic haemodialysis.

Take `CNc1ccc(/C=C/c2ccc(OCCOCCOCC[18F])nc2)cc1` [florbetapir ^18F]: the “PET/CT activity in bone marrow” value (PET/CT, same patient, bone marrow) was “diffuse intense activity above normal background”. In addition, the “PET/CT activity in the heart” value (PET/CT, same patient, heart) is reported as “normal background activity”. Besides, the “accumulation in LECT2-based protein structures” value (positron emission tomography) is given as “accumulates within LECT2-based protein structures”.
